From patent US7598399B2, “Methods for synthesis of 3-amino-1-arylpropyl indoles” (Roche Palo Alto LLC, priority 2005, dated 2009) come the findings set out here.

Structures are written as SMILES.

`CNCC[C@@H](c1ccccc1)c1c[nH]c2cccc(OC)c12` [[(S)-3-(4-Methoxy-1H-indol-3-yl)-3-phenyl-propyl]-methyl-amine] gave a melting point of 134 to 137 °C.

The melting point is the temperature, or range, at which the solid turns liquid.
